Assay results reported in US4188398A, “Method for treating epilepsy” (priority 1978, dated 1980).

Experiments:
[1] = General effect on behaviour of rabbits; format: in vivo; conditions: 500 to 600 mg/kg
[2] = Daily administration for eight weeks, rabbits (chronic toxicity); format: in vivo; conditions: 200 mg/kg intraperitoneally once a day
Protocol: (§1) The effects of daily administrations of the proposed anticonvulsant, carried out over prolonged periods of time, were studied on rabbits and rats.
A 2-percent colloidal solution of the proposed preparation was introduced intraperitoneally in doses of 200 mg/kg to five rabbits. This was done once a day for eight weeks. The same amounts of a colloidal solution of a carboxymethyl cellulose were administered intraperitoneally to three control rabbits.
(§2) Every day the animals' weight and body temperature were measured, and their general state was assessed. Once a week, a general blood analysis was made, the urine was analyzed for protein, blood and biliary pigments. Upon the end of the experiment, the animals were killed (the rabbits were destroyed by air embolism; the rats were decapitated). The liver, heart, kidneys, spleen, lungs and different parts of the small intestine and stomach of the freshly killed animals were taken for pathomorphological investigation.

[3] = Daily administration for eight weeks, rats (chronic toxicity); format: in vivo; conditions: 400 mg/kg per os once a day
Protocol: as §1
A colloidal solution of the proposed antispasmodic was administered per os in doses of 400 mg/kg to six rats. The drug was introduced through a metal probe once a day for eight weeks.
as §2

[4] = Neurotoxicity: rightening, gait, stance, muscle tone and equilibrium tests; format: in vivo; conditions: P = 0.05
Protocol: The neurotoxicity levels were determined by conducting rightening, gait, stance, muscle tone and equilibrium tests.

[5] = Nicotine-induced convulsions; format: in vivo, mice
Protocol: (§4) The anticonvulsant action of the proposed preparation was tested on mice weighing 19 to 25 g and rats weighing 120 to 150 g by conducting maximum electroshock, corazol, strychnine, camphor, nicotine and arecoline tests.

Arecoline tremor test = assay: Arecoline tremor test; design: species or system mice and rats; conditions: in vivo
[6] = Duration of activity, corazol test; format: in vivo, white mice
Protocol: Corazol convulsions and maximum electroshock tests were carried out to determine the duration of the preparation's activity. Two series of experiments were made on white mice weighing 20 to 25 g. In the first series, the preparation was introduced intraperitoneally, whereas in the second series it was introduced into the stomach through a metal probe.
The anticonvulsive action of effective doses of the proposed preparation (200 mg/kg were introduced intraperitoneally, and 400 mg/kg were introduced per os) was tested every 30 minutes on separate groups of mice, each including 100 animals. The tests were continued until complete termination of the anticonvulsive effect.

[7] = Duration of urethane-induced sleep; format: in vivo
Source text: (§3) Nembutal was used as a trunk narcotic, and urethane as a cortical narcotic.

[8] = Duration of Nembutal-induced sleep; format: in vivo; conditions: P = 0.05; Nembutal 40 mg/kg; proposed preparation 100 mg/kg, zarontin 150 mg/kg, milontin 100 mg/kg
Source text: as §3

[9] = Other pharmacological properties (vegetative nervous system, blood pressure, breathing, neuromuscular conduction); format: in vivo; conditions: intraperitoneally or per os
[10] = Single versus multiple administration, antagonism to corazol (addiction / habit forming); format: in vivo
[11] = Teratogenic and embryotoxic tests (A. M. Chernukh's method); format: in vivo, mongrel white female rats; conditions: 400 mg/kg per os, rats
Protocol: Teratogenic and embryotoxic tests of the proposed preparation were carried out by using A. M. Chernukh's method on 35 mongrel white female rats weighing 150 to 200 g. The preparation was introduced per os in a dose of 400 mg/kg.
On the twentieth day of pregnancy, all the animals were decapitated.

[12] = test system: threonine locus of Bacillus coli; assay: Mutagenicity, threonine locus of Bacillus coli; format: cell-based; conditions: 0.2-mole concentration, 24 hours
Protocol: The preparation was further studied with regard to the threonine locus of Bacillus coli at a 0.2-mole concentration; the object was subjected to treatment during 24 hours; the survival rate of the cells was between 42 and 91 percent.

[13] = test system: lysin locus of actinomyces; assay: Mutagenicity, lysin locus of actinomyces; format: cell-based; conditions: same doses
Bacillus coli = format: cell-based
actinomyces = assay: Mutagenicity, Air-Shibalsky technique, actinomyces; format: cell-based
[14] = Clinical study in epilepsy patients; format: in vivo, human (patients)
Protocol: The therapeutic effectiveness of the preparation was evaluated while treating different forms of epilepsy.
The patient's age was between 4 and 56 years with the period of sickness ranging from 2 to 18 years. The different forms of the disease fell into the following categories according to clinical and encephalographic data: polymorphous fits with a deep temporal or frontotemporal focus of epileptic activity; psychomotor fits of pseudo absentia epileptica; generalized tonico-clonic convulsive fits; true absentia epileptica with myoclonic atonic fits and cerebrovascular diseases of the central nervous system, resulting in temporal epileptic fits and polymorphous fits.
The duration of the course of treatment varied from 3 months to 3 years.
The preparation of the present invention was administered per os 3 to 6 times a day; each time a patient was given a tablet of 0.25 g so that the daily dose of the preparation was 0.75 to 1.5 g. […] In a group of 40 patients, examination of other electroencephalographic convulsive manifestations was accompanied by studying focal paroxysmal phenomena in the temporal lobes.

[15] = Maximum electroshock test
Protocol: as §4

[16] = corazol, 200 mg/kg intraperitoneally

Protocol for Camphor convulsions test: as §4
Protocol for Corazol convulsion test: as §4

## CC(C)Oc1ccc(C2CC(=O)NC2=O)cc1 (stereo not drawn) [proposed preparation, α-/para-isopropoxyphenyl/succinimide]
[1]
  effect on behaviour of rabbits: no conspicuous changes in the behaviour
[2]
  organ changes, macroscopic and microscopic histochemical investigation: no changes were observed
  weight, body temperature, general state, blood and urine composition: no changes were registered in the weight, body temperature and general state of the animals
[3]
  organ changes, macroscopic and microscopic histochemical investigation: no changes were observed
  weight, body temperature, general state, blood and urine composition: no changes were registered in the weight, body temperature and general state of the animals
[4]; listed as Preparation according to invention
  TD50 (mean neurotoxic dose): 720(588 to 883) mg/kg
[4]; in vivo, read-out: TD50 (mean neurotoxic dose)
  TD50: 720 mg/kg
[5]; 200 mg/kg, mice
  effect on intensity of nicotine-induced convulsions: markedly reduced the intensity of convulsions
[5]; 300 mg/kg
  effect on nicotine-induced convulsions and tremor: effectively prevents convulsions and tremor
[5]; Mus musculus
  ED50: 190 mg/kg
Arecoline tremor test
  effect on arecoline tremor: does not hinder the development of arecoline tremor
[6]; corazol test
  duration of effect, oral versus intraperitoneal: lasts longer in the case of oral administration
[6]; [16]
  time after which effect totally disappears: three
  time of maximum anticonvulsive effect: 60 min
[6]; corazol, 400 mg/kg per os
  time after which activity is gradually brought down: six
  time after which effect totally disappears: about eight
  time for which maximum level is maintained: four and a half
  time of maximum anticonvulsive effect: 90 min
[7]; P = 0.05, urethane 1,000 mg/kg, proposed preparation 100 mg/kg, zarontin 150 mg/kg, milontin 100 mg/kg
  Average Duration of Urethane-Induced Sleep: 3.2 ± 1.3 min
[7]; in words
  effect upon the duration of urethane-induced sleep: no effect upon the duration of urethane-induced sleep
[8]
  Average Duration of Nembutal-Induced Sleep: 99 ± 67.6 min
[9]
  blood pressure, breathing and neuromuscular conduction: no changes are observed in the blood pressure, breathing and neuromuscular conduction
  effect on the vegetative nervous system: no effect upon the vegetative nervous system
[10]
  habit forming properties: devoid of habit forming properties
[11]
  development of pregnancy: the pregnancy developed normally
[11]; twentieth day of pregnancy
  abnormalities in embryos' growth, internal organs and skeletons: did not reveal any abnormalities in their growth
[12]
  genetic action: extremely weak genetic action
  revertants induced: no more than 17 revertants
[13]
  mutagenous effect: weak mutagenous effect
  revertants induced: no more than 41 revertants
  revertants relative to control: thrice as great as that of the control
Bacillus coli
  mutagenous effect: no mutagenous effect
actinomyces
  mutagenous effect: no mutagenous effect
[14]; administered shortly before bedtime
  insomnia and disturbed sleep: almost all the patients complained of insomnia and disturbed sleep
[14]; after 3 or 4 days of treatment
  itching of the skin, weakness and dizziness: very few cases
[14]; after beginning of treatment, dose of 0.25 g
  time to discontinuation or lower frequency of seizures: 7 to 8 days
[14]; cases of diffusive electroencephalographic pathology
  therapeutic effect in convulsive forms of epilepsy: week therapeutic effect
[14]; clinically and electroencephalographically established focal changes
  effect in secondary generalized seizures: ineffective
[14]; compared with other antiepileptic drugs
  depressing action upon the central nervous system: not as intense as that of other antiepileptic drugs
[14]; group of 40 patients, after 10 to 14 days, per os 0.75 to 1.5 g daily
  patients in whom fits discontinued: 18 patients
[14]; human, in vivo
  anticonvulsive effect versus milontin and celontin in psychomotor and convulsive fits: somewhat more effective
  effect on minor epileptic fits associated with anterior trunkal localization of the epileptic focus: the most effective in stopping minor epileptic fits
  increased frequency of fits: never resulted in an increased frequency of fits
  nausea: Some patients complained of nausea
  potentiating effect upon convulsive paroxysms: absence of a potentiating effect upon convulsive paroxysms
  weakness or dizziness in the day time: does not cause weakness or dizziness in the day time
[14]; last dose 3 or 4 hours before bedtime
  sleep: normal sleep was soon restored
[14]; patients
  allergic manifestations or somatic abnormalities: no allergic manifestations or somatic abnormalities were observed
  effect on ambivalence of reactions, ability for mental work and night sleep: improves the ambivalence of reactions and the ability for mental work; night sleep becomes deeper and longer
  effect on mood, affectivity, anxieties, stresses: improves the general mood of patients, reduces affectivity, eliminates anxieties and relieves stresses
  effect upon aggressive, quarrelsome and importune epileptics: soothing effect
  laboratory analyses of blood and urine: no pathological changes
  pathologic changes in the blood system: no pathologic changes in the blood system
[14]; per os 0.75 to 1.5 g daily
  therapeutic effect in polymorphous paroxysms and fits of the temporal type: the most effective in cases of polymorphous paroxysms and fits of the temporal type
[14]; psychologic examination
  memory of actual events: improves the memory of actual events
[14]; remaining 22 of 40 patients, per os 0.75 to 1.5 g daily
  reduction of frequency of fits: reduced from 3 to 4 a week to 2 to 3 a month
[14]; single doses of 0.5 g
  sedative effect: weak and short-lived sedative effect
[14]; uninterrupted courses up to eight months
  toxic neurological complications: does not result in any toxic neurological complications
In words
  antistrychnine effect, ranking of the three drugs: the most pronounced
strychnine
  ED50 (strychnine): 110 mg/kg
  protection index I=TD50/ED50, Strychnine: 6.55
  protection index PI (mean lethal dose / mean effective dose), Strychnine: 19.55
Corazol convulsion test; Mus musculus, read-out: ED50 (corazol)
  ED50: 86 mg/kg
Corazol convulsion test; corazol
  protection index I=TD50/ED50, Corazol: 8.38
  protection index PI (mean lethal dose / mean effective dose), Corazol: 25
Camphor convulsions test; Mus musculus, read-out: ED50 (camphor)
  ED50: 90 mg/kg
Camphor convulsions test; camphor
  protection index I=TD50/ED50, Camphor: 8
  protection index PI (mean lethal dose / mean effective dose), Camphor: 23.9
[15]; Mus musculus, read-out: ED50 (Electroshock)
  ED50: 77 mg/kg
[15]; electroshock
  protection index I=TD50/ED50, Electroshock: 9.35
  protection index PI (mean lethal dose / mean effective dose), Electroshock: 28
[15]; in words
  anticonvulsant activity in maximum electroshock test: anticonvulsant activity was only exhibited by the proposed preparation and milontin
